Data on 1 compound can be found in patent US11786464B2, “PH responsive block copolymer compositions and micelles that inhibit MCT 1 and related proteins” (The Board of Regents of the University of Texas System, priority 2020, dated 2023).

For one series, the system named is TC-1 tumor. As to the kind of experiment: Tumor growth and survival, TC-1 tumor model. Format: in vivo. Particulars: TC-1 model, day 27. Here is the method:
Six to eight week old mice (n=5-7 for each group) were injected subcutaneously with TC-1 (2×10^5) or B16F10 (2×10^5) cells into the right flank. Animals were treated by 50 mg/kg AZD3965 (administered twice daily by oral gavage for a total of 7 days), or by AZD-UPS NPs (containing 2 mg/kg AZD3965, IV injected at days 7, 10 and 13). Some groups were intraperitoneally injected with 200 μg checkpoint inhibitors (anti-mPD-1, BioXcell, BE0146) for comparison or synergy evaluation. Tumor growth was subsequently measured twice a week using a digital caliper and calculated as 0.5×length×width×height by blinded investigators. Mouse weight was also recorded. Mice were sacrificed when the tumor volumes reached 1,500 mm^3.

The nature of series [1]: Toxicity analysis (body weight, cTnI, ALT, AST) in tumor-bearing mice. In kind it is in vivo.
Protocol: Six to eight week old mice (n=5-7 for each group) were injected subcutaneously with TC-1 (2×10^5) or B16F10 (2×10^5) cells into the right flank. […] Some groups were intraperitoneally injected with 200 μg checkpoint inhibitors (anti-mPD-1, BioXcell, BE0146) for comparison or synergy evaluation. Tumor growth was subsequently measured twice a week using a digital caliper and calculated as 0.5×length×width×height by blinded investigators. Mouse weight was also recorded. Mice were sacrificed when the tumor volumes reached 1,500 mm^3.
Blood of different mouse groups were collected after 4 h. Then alanine transaminase activity assay (Abcam, ab105134), aspartate aminotransferase activity assay (Abcam, ab105135), and mouse cardiac troponin-I ELISA analysis (Life Diagnostics, Inc., Cat. No. CTNI-1-HS) were performed.
In the next series the test system is TC-1 cells. As to the kind of experiment: Measurement of lactate and pH in the cell culture medium. Format: cell-based. Conditions: 1 μM (effective) AZD3965, 24 h, added directly (intact NPs), vs untreated control. Here is the method: All animal procedures were performed with ethical compliance and approval by the Institutional Animal Care and Use Committee at the University of Texas Southwestern Medical Center. Cells were cultured in DMEM medium (10% fetal bovine serum, 100 U/mL penicillin G sodium and 100 μg/mL streptomycin (Pen/Strep), non-essential amino acids, and 20 μM β-mercaptoethanol (β-ME)) at 37° C. in 5% CO2 and the normal level of O2.
For lactate measurement, TC-1 cells were cultured in normal DMEM medium as described above with different drugs: free AZD3965 (1 uM), intact AZD-UPS NPs (1 uM effective AZD3965 concentration), or pretreatment of AZD-UPS NPs in pH 6.0 buffer for pH-activated drug release followed by addition into the cell culture medium. After 24 h incubation, lactate concentration was measured by NOVA BioProfile 4. For pH measurement, TC-1 cells were cultured in DMEM medium (D5030, Sigma) without NaHCO3, and in incubator without CO2 for 24 h, followed by measurement of medium pH.

The nature of a further series: in vivo. Format: in vivo, mice. Particulars: for concentration at 24 h: tumor tissue 24 h after administration, read-out: tumor accumulation of AZD3965.
Setting [2] is: oral administration 50 mg/kg for 7 days, serum 4 h after last treatment, vs untreated.

SMILES strings stand for the structures. Where two headings read alike, the source gives them in different places.

Protocol for in vivo: Mouse plasma were collected and added into 1 mL of methanol/water mixture (80/20, v/v) at 0.5, 6 and 24 h after treatment by different regimens. Tissues (heart, liver, kidney and tumor) were collected at 24 h. About 100 mg of tissues were removed, and the wet weight was recorded. The tissues were homogenized in 1 mL of methanol/water mixture (80/20, v/v). The plasma and tissue mixture were centrifuged and the supernatant was collected respectively, dried by a SpeedVac, then dissolved in methanol and measured by HPLC.

Consider `Cc1[nH]nc(C(F)(F)F)c1Cc1sc2c(c1C(=O)N1C[C@](C)(O)CO1)c(=O)n(C)c(=O)n2C(C)C` [AZD3965], for which, in the series on TC-1 tumor (oral 50 mg/kg twice daily for 7 days, p=0.09 vs untreated), the tumor volume is reported as 9.2±4.1×10^2 mm^3. In the series on TC-1 tumor (oral AZD3965 in combination with anti-PD1), the tumor volume is listed as 8.0±3.1×10^2 mm^3. Moreover, in series [1] (setting [2]), the “level of alanine aminotransferase (ALT)” value is reported as “significantly increased”, the “level of aspartate aminotransferase (AST)” value is on record as “significantly increased” and the “level of cardiac troponin-I (cTnI)” value is given as “significantly increased”. Also, the body weight entry in series [1] (oral administration, two weeks of treatment) was “did not cause weight loss”. Also, in the series with TC-1 cells, the “lactate secretion into culture medium” value is “significantly decreased the secretion of lactate” and the “pH change of culture medium” value was “inhibited the lowering of pH in the medium”. In addition, in “in vivo” (intravenous injection 2 mg/kg), the clearance from plasma entry was “rapid clearance of the drug”. The AUC in the series “in vivo” (mouse, intravenous 2 mg/kg AZD3965, plasma, read-out: area under the concentration-time (AUC) value) came to 5400 ± 2500 ng·h/mL. Further, the concentration at 24 h in “in vivo” (mouse, intravenous 2 mg/kg) was found to be 290 ± 120 ng/g. In “in vivo” (mouse, oral administration 100 mg/kg (50-fold higher dose)), the concentration at 24 h amounted to 4000 ± 3500 ng/g. In addition, the “peak drug plasma concentration” value in “in vivo” (oral administration 100 mg/kg, at 30 min, TC-1 tumor-bearing mice) was determined as 47 ± 27 µg/mL.
